Key:
macrophages [1] = experiment: Toxicity of drugamers to macrophages (Examples 5 and 6); type: cell-based; settings: 50 or 500 ng/mL drugamer; data not shown
Experimental: Methods: CD14+ monocytes were isolated from PBMCs and differentiated to macrophages in RPMI/10% FBS with 10 ng/mL GM-CSF. After 6 days in culture, cells were replated into a 12 well dish, with 250K cells/well. The following day, they were mock transduced or transduced with vector control (EGFRt) or membrane-bound anti-FITC:EGFRt. Media was changed every 3 days. Seven days after transduction, all cells were washed twice with PBS and treated with either 50 or 500 ng/mL drugamer, which contained FITC and CMP8, in PBS. After a 15 min incubation at 37° C., cells were washed twice with PBS and one group of cells (“15 min”) was non-enzymatically detached with VERSENE™ and immediately fixed for flow with 2% paraformaldehyde. After the PBS wash, the other group of cells was allowed to recover in RP10 for 72 hours before detaching/fixing
Methods: CD14+ monocytes were isolated from PBMCs and differentiated to macrophages in RPMI/10% FBS with 10 ng/mL GM-CSF. After 6 days in culture, cells were replated into a 12 well dish, with 250K cells/well. The following day, they were mock transduced or transduced with vector control (EGFRt) or membrane-bound anti-FITC:EGFRt. Media was changed every 3 days. […] Rhodamine fluorescence was measured, indicating the presence of drugamer following 10 days in culture (data not shown).

macrophages [2] = experiment: Free resiquimod and galunisertib testing, cytokines and phenotype (Example 9); type: cell-based, human; settings: Galunisertib 56 nM for 1 hour, on its own
Experimental: (§1) Methods: CD14+ monocytes were isolated from PBMCs and differentiated to macrophages in RPMI/10% FBS with 10 ng/mL GM-CSF or 25 ng/ml M-CSF for 6 days. Macrophages were incubated with Resiquimod (1 ug/ml) and/or Galunisertib (56 nM) for 1 hour, then stimulated with 1 ug LPS/100U/ml IFNg to determine impact on viability using flow cytometry of cells and pro-inflammatory responsiveness using a 30plex for human cytokines on cell supernatant 24 hours after stimulation. Expression of bFGF, IL-1B, GCSF, IL10, 1L^13, IL6, IL12, Rantes, MIP1a, GMCSF, MIP1B, MCP1, IL15, EGF, IL5, HGF, VEGF, IFNg, IFNa, IL1RA, TNFa, IL7, IP10, IL2R, MIG, and IL8 was measured in the following treatment groups: M1 control, M1 resiquimod, M1 galunisertib, M1 resiquimod+galunisertib, M1 LPS/IFNg+resiquimod, M1 LPS/IFNg+galunisertib, M1 LPS/IFNg+resiquimod, +galunisertib, M2 control, M2 resiquimod, M2 galunisertib, M2 resiquimod+galunisertib, M2 LPS/IFNg+resiquimod, M2 LPS/IFNg+galunisertib, and M LPS/IFNg+resiquimod, +galunisertib (data not shown). […]

primary macrophages = experiment: Free resiquimod and galunisertib testing, toxicity (Example 9); type: cell-based, human; settings: Resiquimod 1 ug/ml and/or Galunisertib 56 nM, alone or in combination
Experimental: as §1

M1 polarized macrophages = experiment: Free PI103 testing, 30plex cytokines, M1 macrophages (Example 8); type: cell-based, human; settings: 500 nM PI103 for 1 hour, then LPS/IFNg, 24 hours
Experimental: (§2) Methods: CD14+ monocytes were isolated from PBMCs and differentiated to macrophages in RPMI/10% FBS with 10 ng/mL GM-CSF or 25 ng/ml M-CSF for 6 days. Macrophages were incubated with 500 nM PI103 for 1 hour, then stimulated with 1 ug LPS/100U/ml IFNg to determine impact on viability using flow cytometry of cells and pro-inflammatory responsiveness using a 30plex for human cytokines on cell supernatant 24 hours after stimulation. The expression of MIP1B, MCP1, IL15, EGF, HGF, VEGF, IFNg, IFNa, IL1RA, TNFa, IL7, IP10, IL2R, MIG, IL4, and IL8 was determined for each of the following groups: M1 control, M1 PI103, M1 LPS/IFNg, M1 PI103 LPS/IFNg, M2 control, M2 PI103, M2 LPS/IFNg, and M2 PI103 LPS/IFNg (data not shown). A summary of the significant data when using t-test to compare between treatment groups with and without Pi103 is shown for M1 macrophages in FIG. 22A and M2 macrophages in FIG. 22B.

M2 polarized macrophages = experiment: Free PI103 testing, 30plex cytokines, M2 macrophages (Example 8); type: cell-based, human; settings: 500 nM PI103 for 1 hour, then LPS/IFNg, 24 hours
Experimental: as §2

[3] = test system: MCSF polarized M2 macrophages; experiment: Free PI103 testing, flow cytometry of surface markers (Example 8); type: cell-based, human; settings: 500 nM PI103
Experimental: as §2, with “22B. Flow cytometry staining included Live/Dead, HLA-DR, CD11b and CD14 to confirm expression of macrophage surface markers and viability (data not shown), as well as CD206 (anti-inflammatory macrophage marker; data not shown), CD163 (anti-inflammatory macrophage marker; data not shown), CD80 and CD86 (costimulatory molecules; data not shown).” for “22B.”

[4] = test system: CCR expressing CAR T cells; experiment: Exhaustion marker expression on CAR T cells cultured with macrophage derived IL-7 (Example 10); type: cell-based; settings: in contrast to culture with recombinant IL-7, FIG. 23C
Experimental: Methods: CD14+ monocytes were isolated from PBMCs and differentiated to macrophages in RPMI/10% FBS with 10 ng/mL GM-CSF. After 6 days in culture, cells were replated into a 12 well dish, with 250K cells/well. The following day, they were mock transduced or transduced with vector control (EGFRt) or a vector encoding constitutive IL-7 under the control of the EF1a promoter. Autologous T cells were transduced with a chimeric cytokine receptor shown on FIG. 23A, and an anti-EGFRvIII specific CAR. T cells were magnetically separated based on CD4 and CD8 expression and expanded in vitro using Miltenyi CD3/CD28 beads and frozen. CFSE Cell Trace labeled CD4 or CD8 T cells were used in proliferation assays in response to IL-7 transduced macrophages.

Molecule: O=C1CCC2(Cc3ccc(Cl)cc3)Cc3cc(O)ccc3C2=C1c1ccc(OCCN2CCCCC2)cc1 (stereo not shown) [CMP8, 9a-(4-Chlorobenzyl)-7-hydroxy-4-[4-(2-piperidin-1-ylethoxy)phenyl]-1,2,9,9a-tetrahydro-3H-fluoren-3-one]
- toxicity to macrophages (macrophages [1]): toxicity is linked to CMP8

Molecule: Cc1cccc(-c2nn3c(c2-c2ccnc4ccc(C(N)=O)cc24)CCC3)n1 [Galunisertib]
- phenotypic or functional response to stimulation (macrophages [2]): little impact on phenotypic or functional response to stimulation
- toxicity to primary macrophages (primary macrophages): neither molecule alone or in combination is toxic to primary macrophages

Molecule: Oc1cccc(-c2nc(N3CCOCC3)c3oc4ncccc4c3n2)c1 [PI103]
- pro-inflammatory cytokine production (M1 polarized macrophages): decrease
- pro-inflammatory TNFalpha production (M2 polarized macrophages): increase
- antigen presentation surface proteins CD80 and CD86 [3]: increase
- surface markers consistent with an anti-inflammatory phenotype [3]: decrease

Molecule: CCOCc1nc2c(N)nc3ccccc3c2n1CC(C)(C)O [resiquimod]
- toxicity to primary macrophages (primary macrophages): neither molecule alone or in combination is toxic to primary macrophages

B1: macrophage derived IL-7: IL-7 produced by macrophages transduced with a vector encoding constitutive IL-7 (protein, UniProt P13232 26-177, looked up)
Interleukin-7: DCDIEGKDGKQYESVLMVSIDQLLDSMKEIGSNCLNNEFNFFKRHICDANKEGMFLFRAARKLRQFLKMNSTGDFDLHLLKVSEGTTILLNCTGQVKGRKPAALGEAQPTKSLEENKSLKEQKKLNDLCFLKRLLQEIKTCWNKILMGTKEH
- expression of exhaustion markers TIM3, PD-1, and CD95 [4]: reduced
- expression of exhaustion markers TIM3, PD-1, and CD95 ([4]; listed as GEM derived IL-7): reduces exhaustion marker expression
